Values quoted from earlier work as cited in patent US5463127A, “Process for preparation of halohydroxypropyl-trialkylammonium halides” (The Dow Chemical Company, priority 1995, dated 1995).
Read-outs that look alike come from different tables or passages of the source.

Details: aqueous solution

CN(C)C [Trimethylamine, trimethylamine]
pKa of Trimethylamine (0 °C.): 10.355
pKa of Trimethylamine (10 °C.): 10.128
pKa of Trimethylamine (20 °C.): 9.907
pKa of Trimethylamine (30 °C.): 9.692
pKa of Trimethylamine (40 °C.): 9.477
pKa of Trimethylamine (50 °C.): 9.270
